The assay has as its target T1, Dehaloperoxidase B (Amphitrite ornata, UniProt Q9NAV7).
T1 sequence (Q9NAV7 whole entry): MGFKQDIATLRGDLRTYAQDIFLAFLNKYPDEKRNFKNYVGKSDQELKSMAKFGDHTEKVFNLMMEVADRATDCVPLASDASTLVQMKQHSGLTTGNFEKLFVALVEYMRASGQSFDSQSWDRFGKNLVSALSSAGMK
Description: Resonance Raman Assay. The settings on record: pH 7. As to the method:
Samples for solution resonance Raman spectroscopic studies were prepared withfinal concentrations of 75 μM WT DHP B and 3.75 mM azole in 100 mM KPi (pH 7 or 9) containing 10% MeOH (v/v) and then transferred to a 5 mm outside diameter glass NMR tube. Anaerobic samples were prepared inside a glovebox in the same fashion using septum-capped NMR tubes. Spectra were recorded by Soret band excitation (400−430 nm, 60 mW power) as previously described. [Barrios et al., J. Am. Chem. Soc., 136:7914-7925]
For `c1c[nH]cn1`, the Kd came out at 52 µM.
Take “1,2,3-benzotriazole::Benzotriazole (Bta)”: the Kd stood at 82 µM.
On to `c1ccc2[nH]cnc2c1` [1H-1,3-benzodiazole], for which binding was put at a Kd of 110 µM.

Broadly, the Kd is a measure of binding affinity in units of concentration.

(Values after BindingDB's records for doi:10.1021/acs.biochem.7b00041 (North Carolina State University, 2017).)
